The target in data set [1] is T1, Tyrosine-protein phosphatase non-receptor type 1 (Homo sapiens, UniProt P18031).
T1 sequence (P18031 whole entry): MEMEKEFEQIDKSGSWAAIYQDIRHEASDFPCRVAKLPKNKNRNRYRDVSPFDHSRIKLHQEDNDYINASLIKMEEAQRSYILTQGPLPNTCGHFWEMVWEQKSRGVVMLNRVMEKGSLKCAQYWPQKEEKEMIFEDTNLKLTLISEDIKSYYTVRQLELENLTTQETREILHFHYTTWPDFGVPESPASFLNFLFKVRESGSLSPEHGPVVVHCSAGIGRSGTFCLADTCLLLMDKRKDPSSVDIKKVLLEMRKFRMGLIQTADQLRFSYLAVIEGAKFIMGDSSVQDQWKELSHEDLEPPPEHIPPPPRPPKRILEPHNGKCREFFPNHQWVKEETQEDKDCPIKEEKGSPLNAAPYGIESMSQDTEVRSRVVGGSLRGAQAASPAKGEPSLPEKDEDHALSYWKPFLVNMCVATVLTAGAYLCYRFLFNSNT
Put plainly: Inhibitory activity against Protein-tyrosine phosphatase 1B at pH 5.5.

Data set [2] deals with T1, Tyrosine-protein phosphatase non-receptor type 1. Put plainly: Inhibitory activity against Protein-tyrosine phosphatase 1B.
A short description of data set [3]: Bioavailability. It is filed as ADME, organism-based. The following applies: eutheria, in vivo; read-out: Fez.
Data set [4] concerns the target T2, Tyrosine-protein phosphatase non-receptor type 1 (Homo sapiens) (UniProt P18031).
T2 sequence (whole entry): T1 sequence (P18031 whole entry)
As to the kind of experiment: Inhibitory concentration for Protein-tyrosine phosphatase 1B.

In general, Ki refers to a measure of affinity in units of concentration, obtained from inhibition or displacement. Read a high Ki as a looser hold on the target. Regarding `O=C(O)C(=O)Nc1sc2c(c1C(=O)O)CCN[C@H]2CNC(=O)c1cc2cc(F)ccc2[nH]1`, the affinity in data set [1] corresponds to a Ki of 18 nM.
Compound `CCc1cc(CC(NC(C)=O)C(=O)NCCCCC(=O)N[C@@H](CCSC)C(=O)O)ccc1N(C(=O)C(=O)O)c1ccccc1C(=O)O` (some centres undefined) returned a Ki in data set [2] of 77 nM.
Turning to `O=C(c1ccccc1)C(Cc1ccc(C(F)(F)P(=O)(O)O)cc1)c1ccccc1` (centres undefined), the bioavailability in data set [3] turned out to be 13%.
Turning to `CC(C)c1ccc(N2N=C3CSCC=C3C(C#N)=C2N)cc1`, the Concentration in data set [4] worked out at 5.6 µM.

The values are drawn from ChEMBL document CHEMBL1138670, “Prospects for inhibitors of protein tyrosine phosphatase 1B as antidiabetic drugs” (J Med Chem, 2004).
